The NIST ThermoML archive (doi:10.1016/j.jct.2012.09.009)

Conditions: 101.33 kPa, Liquid; for speed of sound: Sing-around technique in a fixed-path interferometer; for mass density: vibrating tube

CC(C)CC(C)(C)C [2,2,4-trimethylpentane]
Conditions | mass density [kg/m3] | speed of sound [m/s]
278.15 K | 704.1 | 1168.4
283.15 K | 700.05 | 1146.8
288.15 K | 695.98 | 1125.4
293.15 K | 691.89 | 1104.3
298.15 K | 687.77 | 1083.1
303.15 K | 683.64 | 1062.4
308.15 K | 679.48 | 1041.6
313.15 K | 675.28 | 1020.9
318.15 K | 671.07 | 1000.5
323.15 K | 666.81 | 980
328.15 K | 662.52 | 959.7
333.15 K | 658.19 | 939.7
338.15 K | 653.81 | 919.7
343.15 K | 649.4 | 900

Cc1ccccc1 [toluene]
Conditions | speed of sound [m/s]
278.15 K | 1394.1
283.15 K | 1371.5
288.15 K | 1349.1
293.15 K | 1326.9
298.15 K | 1305.1
303.15 K | 1283.6
308.15 K | 1262.2
313.15 K | 1240.9
318.15 K | 1219.9
323.15 K | 1198.9
328.15 K | 1178.2
333.15 K | 1157.7
338.15 K | 1137.2
343.15 K | 1117
